In patent publication US9555038B2, “Heterocycle-substituted tetracyclic compounds and methods of use thereof for the treatment of viral diseases” (Merck Sharp & Dohme Corp., priority 2013, dated 2017) one finds IC50 data, which are given here for 18 molecules.

Where two headings read alike, the source gives them in different places.

The subject of one assay is HCV replicon 2B. As to the kind of experiment: Cell-based HCV Replicon Assay A, replicon 2B. The essentials:
(§1)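 Replicon cells were seeded at 2000 cells/well with test compound in 10 serial dilutions, starting at 333.3 nM to 1.667 nM, in 0.5% DMSO and 5% FBS. On day 3, cells were washed and lysed, and replicon RNA was quantified by multiplex TaqMan RT-PCR normalised to cyclophilin.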

Another assay deals with HCV replicon 1AQ30D. As to the kind of experiment: Cell-based HCV Replicon Assay B, replicon 1AQ30D. In short, it runs like this: (§2)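 Replicon cells seeded in 5% FBS; compounds added 24 h later, then 3 days' incubation. Replicon RNA quantified by real-time RT-PCR with genotype-specific primers/probes (NS5B amplicon for 1b). EC50 = concentration raising CT by 1 over projected baseline.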

The next assay concerns HCV replicon 1A. As to the kind of experiment: Cell-based HCV Replicon Assay A, replicon 1A. The essentials: as §1
The subject of the next assay is HCV replicon 1AY93H. The assay can be described thus: Cell-based HCV Replicon Assay A, replicon 1AY93H. The essentials: as §1
The subject of the next assay is HCV replicon 1B. The assay can be described thus: Cell-based HCV Replicon Assay B, replicon 1B. The essentials:
as §2

[1] abbreviates: Hepatitis C virus, read-out: 2B IC50 (nM), replicon 2B.
The mark [2] stands for this setting: Hepatitis C virus, read-out: 1A Q30D IC50 (nM), replicon 1AQ30D.
[3] abbreviates: Hepatitis C virus, read-out: 1A Y93H IC50 (nM), replicon 1AY93H.
[4] abbreviates: read-out: 1A Y93H IC50, replicon 1AY93H.
Setting [5] is: read-out: 1A Q30D IC50, replicon 1AQ30D.

In the case of `COC(=O)N[C@H](C(=O)N1CCC[C@H]1c1ncc(-c2cc(C)c3c(c2)OC(c2cnc(C4CC4)s2)n2c-3cc3cc(-c4cnc([C@@H]5C[C@H]6C[C@H]6N5C(=O)[C@@H](NC(=O)OC)C(C)C)[nH]4)ccc32)[nH]1)C(C)C` (single isomer, unassigned) [Compound 203], the IC50 with HCV replicon 2B (setting [1]) came out at 0.007 nM; in the assay on HCV replicon 1AQ30D (setting [2]) it was 0.654 nM; with HCV replicon 1A (Hepatitis C virus) it was 4.47 pM; with HCV replicon 1AY93H (setting [3]), 0.0166 nM; with HCV replicon 1B (Hepatitis C virus), 3 pM.
Regarding `COC(=O)N[C@H](C(=O)N1CCC[C@H]1c1ncc(-c2cc(C)c3c(c2)OC(c2cnc(C4CCC4)s2)n2c-3cc3cc(-c4cnc([C@@H]5CCCN5C(=O)[C@@H](NC(=O)OC)C(C)C)[nH]4)ccc32)[nH]1)C(C)C` (single isomer, unassigned) [Compound 204], the half-maximal inhibitory concentration (IC50) turned out to be 0.013 nM with HCV replicon 2B (setting [1]); 0.772 nM in the assay on HCV replicon 1AQ30D (setting [2]); 4 pM in the assay on HCV replicon 1A (Hepatitis C virus); 0.0579 nM with HCV replicon 1AY93H (setting [3]); 2 pM in the assay on HCV replicon 1B (Hepatitis C virus).
On to `CCCc1ncc(C2Oc3cc(-c4cnc([C@@H]5CCCN5C(=O)[C@@H](NC(=O)OC)C(C)C)[nH]4)cc(C)c3-c3cc4cc(-c5cnc([C@@H]6C[C@H]7C[C@H]7N6C(=O)[C@@H](NC(=O)OC)C(C)C)[nH]5)ccc4n32)s1` (single isomer, unassigned) [Compound 206], for which the half-maximal inhibitory concentration (IC50) with HCV replicon 2B (read-out: 2B IC50, replicon 2B) is 0.03 nM; with HCV replicon 1AQ30D (setting [2]), 0.83 nM; in the assay with HCV replicon 1A, 7 pM; in the assay on HCV replicon 1AY93H (setting [4]), 0.023 nM; in the assay with HCV replicon 1B (Hepatitis C virus), 4 pM.
On to `COC(=O)N[C@H](C(=O)N1CCC[C@H]1c1ncc(-c2cc(C)c3c(c2)OC(c2cnc(C4CC4)s2)n2c-3cc3cc(-c4cnc([C@@H]5C[C@H]6C[C@H]6N5C(=O)[C@@H](NC(=O)OC)C(C)(C)F)[nH]4)ccc32)[nH]1)C(C)C` (single isomer, unassigned) [Compound 208], for which the IC50 in the assay on HCV replicon 2B (read-out: 2B IC50, replicon 2B) was determined as 0.011 nM; in the assay on HCV replicon 1AQ30D (setting [2]), 0.268 nM; with HCV replicon 1A (Hepatitis C virus), 2.8 pM; in the assay on HCV replicon 1AY93H (setting [4]), 0.0243 nM; in the assay with HCV replicon 1B (Hepatitis C virus) it was 3 pM.
With `COC(=O)N[C@H](C(=O)N1CCC[C@H]1c1ncc(-c2cc(C)c3c(c2)OC(c2cnc(C4CCC4)s2)n2c-3cc3cc(-c4cnc([C@@H]5C[C@H]6C[C@H]6N5C(=O)[C@@H](NC(=O)OC)C(C)(C)F)[nH]4)ccc32)[nH]1)C(C)C` (single isomer, unassigned) [Compound 210], the half-maximal inhibitory concentration (IC50) in the assay on HCV replicon 2B (setting [1]) was 0.006 nM; in the assay on HCV replicon 1AQ30D (setting [2]), 0.216 nM; in the assay with HCV replicon 1A (Hepatitis C virus), 4.9 pM; with HCV replicon 1AY93H (setting [3]), 0.0163 nM; with HCV replicon 1B (Hepatitis C virus), 2 pM.
The matching figures for `COC(=O)NC(C(=O)N1CCC[C@H]1c1ncc(-c2ccc3c(c2)cc2n3C(c3cnc(C4CC4)s3)Oc3cc(-c4cnc([C@@H]5CCCN5C(=O)[C@@H](NC(=O)OC)C(C)C)[nH]4)cc(C)c3-2)[nH]1)C1C[C@@H](C)O[C@@H](C)C1` (single isomer, unassigned) [Compound 212]: 0.007 nM, 0.499 nM, 6.8 pM, 0.0354 nM and 8 pM.
The matching figures for `COC(=O)NC(C(=O)N1CCC[C@H]1c1ncc(-c2ccc3c(c2)cc2n3C(c3cnc(C4CC4)s3)Oc3cc(-c4cnc([C@@H]5CCCN5C(=O)[C@@H](NC(=O)OC)C(C)C)[nH]4)cc(C)c3-2)[nH]1)C1C[C@@H](C)O[C@H](C)C1` (single isomer, unassigned) [Compound 213]: 0.005 nM, 0.126 nM, 7.8 pM, 0.0252 nM and 7 pM.
The matching figures for `COC(=O)NC(C(=O)N1CCC[C@H]1c1ncc(-c2ccc3c(c2)cc2n3C(c3cnc(C4CC4)s3)Oc3cc(-c4cnc([C@@H]5CCCN5C(=O)[C@@H](NC(=O)OC)C(C)C)[nH]4)cc(C)c3-2)[nH]1)C1CCOC(C)(C)C1` (single isomer, unassigned) [Compound 214]: 0.004 nM, 0.44 nM, 2.7 pM, 0.02 nM and 8 pM.
`COC(=O)NC(C(=O)N1[C@@H]2C[C@@H]2C[C@H]1c1ncc(-c2ccc3c(c2)cc2n3C(c3cnc(C4CC4)s3)Oc3cc(-c4cnc([C@@H]5CCCN5C(=O)[C@@H](NC(=O)OC)C(C)C)[nH]4)cc(C)c3-2)[nH]1)C1C[C@@H](C)O[C@@H](C)C1` (single isomer, unassigned) [Compound 217]: the IC50 came out at 0.011 nM in the assay on HCV replicon 2B (read-out: 2B IC50, replicon 2B); 0.241 nM in the assay on HCV replicon 1AQ30D (setting [2]); 3.2 pM in the assay with HCV replicon 1A; 0.0085 nM in the assay with HCV replicon 1AY93H (setting [4]); 5 pM in the assay with HCV replicon 1B.
Take `COC(=O)NC(C(=O)N1CCC[C@H]1c1ncc(-c2ccc3c(c2)cc2n3C(c3cnc(C4CCC4)s3)Oc3cc(-c4cnc([C@@H]5CCCN5C(=O)[C@@H](NC(=O)OC)C(C)C)[nH]4)cc(C)c3-2)[nH]1)C1C[C@@H](C)O[C@@H](C)C1` (single isomer, unassigned) [Compound 219]: the IC50 came to 0.003 nM in the assay on HCV replicon 2B (read-out: 2B IC50, replicon 2B); 0.096 nM in the assay on HCV replicon 1AQ30D (setting [2]); 2.7 pM in the assay on HCV replicon 1A; 0.013 nM with HCV replicon 1AY93H (setting [4]); 4 pM in the assay with HCV replicon 1B (Hepatitis C virus).
Consider `COC(=O)NC(C(=O)N1CCC[C@H]1c1ncc(-c2ccc3c(c2)cc2n3C(c3cnc(C4CCC4)s3)Oc3cc(-c4cnc([C@@H]5CCCN5C(=O)[C@@H](NC(=O)OC)C(C)C)[nH]4)cc(C)c3-2)[nH]1)C1CCOC(C)(C)C1` (single isomer, unassigned) [Compound 221], for which the concentration for half-maximal inhibition (IC50) in the assay with HCV replicon 2B (setting [1]) was 0.006 nM; in the assay with HCV replicon 1AQ30D (setting [2]), 0.39 nM; with HCV replicon 1A (Hepatitis C virus) it was 7 pM; in the assay on HCV replicon 1AY93H (setting [3]) it was 0.06 nM; with HCV replicon 1B (Hepatitis C virus), 8 pM.
The matching figures for `COC(=O)NC(C(=O)N1[C@@H]2C[C@@H]2C[C@H]1c1ncc(-c2ccc3c(c2)cc2n3C(c3cnc(C4CCC4)s3)Oc3cc(-c4cnc([C@@H]5CCCN5C(=O)[C@@H](NC(=O)OC)C(C)C)[nH]4)cc(C)c3-2)[nH]1)C1C[C@@H](C)O[C@@H](C)C1` (single isomer, unassigned) [Compound 222]: 0.007 nM, 0.044 nM, 2.7 pM, 0.0059 nM and 6 pM.
The matching figures for `COC(=O)NC(C(=O)N1[C@@H]2C[C@@H]2C[C@H]1c1ncc(-c2ccc3c(c2)cc2n3C(c3cnc(C4CCC4)s3)Oc3cc(-c4cnc([C@@H]5CCCN5C(=O)[C@@H](NC(=O)OC)C(C)C)[nH]4)cc(C)c3-2)[nH]1)C1CCOC(C)(C)C1` (single isomer, unassigned) [Compound 223]: 0.115 nM, 2.98 nM, 6 pM, 0.3 nM and 8 pM.
On to `COC(=O)N[C@H](C(=O)N1CCC[C@H]1c1ncc(-c2cc(F)c3c(c2)OC(c2cnc(C4CC4)s2)n2c-3cc3cc(-c4cnc([C@@H]5C[C@H]6C[C@H]6N5C(=O)[C@@H](NC(=O)OC)C(C)C)[nH]4)ccc32)[nH]1)C(C)C` (single isomer, unassigned) [Compound 300], for which the concentration for half-maximal inhibition (IC50) was 0.011 nM with HCV replicon 2B (read-out: 2B IC50, replicon 2B); 0.066 nM in the assay with HCV replicon 1AQ30D (setting [5]); 3 pM with HCV replicon 1A; 0.0041 nM in the assay with HCV replicon 1AY93H (setting [4]); 3 pM in the assay with HCV replicon 1B (Hepatitis C virus).
For the molecule `COC(=O)N[C@H](C(=O)N1CCC[C@H]1c1ncc(-c2cc(F)c3c(c2)OC(c2cnc(C4CC4)s2)n2c-3cc3cc(-c4cnc([C@@H]5C[C@H]6C[C@H]6N5C(=O)[C@@H](NC(=O)OC)C(C)C)[nH]4)ccc32)[nH]1)C(C)C` (single isomer, unassigned) [Compound 301], the IC50 stood at 0.335 nM with HCV replicon 2B (read-out: 2B IC50, replicon 2B); 2.12 nM with HCV replicon 1AQ30D (setting [5]); 1.4 pM with HCV replicon 1A; 0.22 nM with HCV replicon 1AY93H (setting [4]); 4 pM with HCV replicon 1B.
With `COC(=O)N[C@H](C(=O)N1CCC[C@H]1c1ncc(-c2cc(F)c3c(c2)OC(c2cnc(C(C)(C)C)s2)n2c-3cc3cc(-c4cnc([C@@H]5CCCN5C(=O)[C@@H](NC(=O)OC)C(C)C)[nH]4)ccc32)[nH]1)C(C)C` (single isomer, unassigned) [Compound 302], the 50% inhibitory concentration (IC50) in the assay on HCV replicon 2B (read-out: 2B IC50, replicon 2B) amounted to 0.077 nM; with HCV replicon 1AQ30D (setting [2]) it was 0.168 nM; with HCV replicon 1A (Hepatitis C virus), 2.9 pM; in the assay on HCV replicon 1AY93H (setting [4]), 0.0071 nM; in the assay with HCV replicon 1B it was 1 pM.
Consider `COC(=O)NC(C(=O)N1CCC[C@H]1c1ncc(-c2ccc3c(c2)cc2n3C(c3cnc(C4CC4)s3)Oc3cc(-c4cnc([C@@H]5CCCN5C(=O)[C@@H](NC(=O)OC)C(C)C)[nH]4)cc(F)c3-2)[nH]1)C1C[C@@H](C)O[C@H](C)C1` (single isomer, unassigned) [Compound 304], for which the half-maximal inhibitory concentration (IC50) in the assay on HCV replicon 2B (read-out: 2B IC50, replicon 2B) was determined as 0.048 nM; in the assay on HCV replicon 1AQ30D (setting [5]), 0.954 nM; with HCV replicon 1A (Hepatitis C virus) it was 2 pM; with HCV replicon 1AY93H (setting [4]), 0.123 nM; in the assay with HCV replicon 1B (Hepatitis C virus), 3 pM.
With `COC(=O)NC(C(=O)N1CCC[C@H]1c1ncc(-c2ccc3c(c2)cc2n3C(c3cnc(C4CC4)s3)Oc3cc(-c4cnc([C@@H]5CCCN5C(=O)[C@@H](NC(=O)OC)C(C)C)[nH]4)cc(F)c3-2)[nH]1)C1C[C@@H](C)O[C@@H](C)C1` (single isomer, unassigned) [Compound 307], the IC50 in the assay with HCV replicon 2B (read-out: 2B IC50, replicon 2B) worked out at 0.006 nM; in the assay on HCV replicon 1AQ30D (setting [2]) it was 0.047 nM; with HCV replicon 1A, 4.2 pM; with HCV replicon 1AY93H (setting [4]), 0.0083 nM; with HCV replicon 1B (Hepatitis C virus), 5 pM.
